# Laboratory results as given in patent US8987213B2, “Peptides that selectively home to heart vasculature and related conjugates and methods” (Sanford-Burnham Medical Research Institute, priority 2004, dated 2015).
# “Also recorded” adds a separate entry of the source. Where no end group is shown, it is not given here.
# What was measured:
# heart vasculature = assay: In vivo heart homing of individual phage-displayed peptides after intravenous injection; design: species or system mouse; conditions: for selective homing to the heart (in words): peptide displayed on T7 phage, intravenous injection into mice
# Description: The indicated peptides identified from a combined screen for heart endothelial homing were reconstituted in T7 phage and individually administered by intravenous injection into mice. […] The highest specificity (over 300-fold) was recorded for the CRPPR (SEQ ID NO: 1)-displaying phage. (A) CRPPR (SEQ ID NO: 1) phage homing to heart, kidney, brain, muscle and lung. (B) CARPAR (SEQ ID NO: 5) phage homing to heart, kidney, brain, muscle and lung. (C) CKRAVR (SEQ ID NO: 7) phage homing to heart, kidney, brain, muscle and lung. (D) CLIDLHVMC (SEQ ID NO: 10) phage homing to heart, kidney, brain, muscle and lung. (E) CRSTRANPC (SEQ ID NO: 11) phage homing to heart, kidney, brain, muscle and lung. (F) CPKTRRVPC (SEQ ID NO: 12) phage homing to heart, kidney, brain, muscle and lung.
# In vivo panning was performed as follows. The ex vivo-selected phage pool (5×10^9 p.f.u.) was intravenously injected into mice through the tail vein and allowed to circulate for ten minutes before mice were carefully perfused through the left ventricle with DMEM in order to remove unbound intravascular phage. The heart and control tissues (brain, kidney, skin and muscle) were excised, and phage recovered as described in Hoffman et al., supra, 2004. Phage recovered from the heart were reinjected into mice, and the cycle was repeated for a total of three rounds. Non-recombinant phage were injected into a separate mouse as a control in each experiment.
# Individual phage clones were reconstructed as follows. Oligonucleotides that encoded peptides from selected bait plasmids were synthesized, phosphorylated with T4 polynucleotide kinase (PNK; NEB) at 37° C. for one hour, and annealed at a concentration of 0.08 pmol/μl. The annealed inserts were diluted to 0.04 pmol/μl and ligated into T7Select 415-1 arms (Novagen) with T4 ligase overnight at 16° C. The next day, intact recombinant phage were prepared by mixing the ligation reaction with packaging extracts as described by the manufacturer. Inserts were confirmed by sequencing, and individual clones were amplified for ex vivo and in vivo testing as described in Example I above.
# heart endothelia = assay: Phage localization in tissues by anti-T7 immunostaining, co-injected with fluorescein-conjugated tomato lectin; assay type: in vivo, mouse; conditions: peptide displayed on phage, injected intravenously with tomato lectin
# Description: Further characterization was performed on the five most efficient homing peptides, as indicated by the fold-selectivity summarized in Table 1, and their putative receptors. These homing peptides were analyzed for the ability to selectively bind heart endothelia in vivo and for specific binding to their putative receptors, which also were analyzed for expression in heart endothelia. Each of the phage-displaying a particular homing peptide was individually injected intravenously into mice with fluorescein-conjugated tomato lectin, a blood vessel marker. […] None of the six phage were detected in tissues other than heart under the same conditions.
# Immunohistochemistry was performed as follows. Rat monoclonal anti-mouse CD31 (1:100) was obtained from BD Pharmingen (San Jose, Calif.), and rabbit polyclonal anti-T7 phage (1:500), and chicken anti-mouse CRIP2 IgY (1:100) were obtained from GenWay (San Diego, Calif.). Secondary antibodies, AlexaFluor-488 goat anti-rat IgG (1:1000) and AlexaFluor-594 goat anti-rat or rabbit IgG (1:1000) were obtained from Molecular Probes (Eugene, Oreg.); the secondary antibody GAYFC-AlexaFluor 594 goat anti-IgY Fc (1:250) was obtained from GenWay. Frozen sections were preincubated with blocking buffer (5% normal goat serum and 0.5% BSA in 1×PBS) for one hour, washed three times with PBS, and incubated with the primary antibody of interest overnight at 4° C. After the overnight incubation, secondary antibodies were added and incubated for one hour at room temperature. Slides were washed three times with PBS and mounted in Vectashield Mounting Medium with DAPI (Vector Laboratories; Burlingame, Calif.). Blood vessels were additionally visualized by intravenous injection with Lycopersicon esculentum (tomato) lectin conjugated to fluorescein (100 μg in 200 μl of PBS) purchased from Vector Laboratories.
# Sigirr/TIR8 = biological target: T1, Sigirr/TIR8 (Mus musculus, UniProt Q9JLZ8); assay: Phage binding to receptor-transfected 293T cells and peptide competition; design: species or system murine; conditions: free synthetic peptide 100 μg/ml
# T1 construct: Full-length cDNAs were constructed for four of the putative heart homing receptors; expressed in transfected cells; host or cells: 293T cells, pMH6-derived plasmid
# T1 sequence (Q9JLZ8 1-409): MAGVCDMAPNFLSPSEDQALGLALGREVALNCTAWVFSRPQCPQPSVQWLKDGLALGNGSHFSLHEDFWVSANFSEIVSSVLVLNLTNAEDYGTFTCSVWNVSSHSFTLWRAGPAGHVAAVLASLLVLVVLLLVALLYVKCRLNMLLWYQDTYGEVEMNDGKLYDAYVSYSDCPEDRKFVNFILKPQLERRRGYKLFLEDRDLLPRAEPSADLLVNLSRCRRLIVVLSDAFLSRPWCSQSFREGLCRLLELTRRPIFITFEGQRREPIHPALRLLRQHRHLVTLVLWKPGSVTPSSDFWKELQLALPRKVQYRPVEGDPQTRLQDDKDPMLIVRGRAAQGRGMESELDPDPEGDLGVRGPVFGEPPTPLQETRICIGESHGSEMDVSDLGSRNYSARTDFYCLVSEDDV
# Description: (§1) Receptor transfections and phage binding assays were performed as follows. 293T cells were transfected with pMH6-derived plasmids (Roche Diagnostics; Indianapolis, Ind.) encoding HLP/CRIP2, Sigirr/TIR8, MpcII-3-related protein and bc10 using the Fugene transfection reagent (Roche Diagnostics). Briefly, 10 μg of plasmid was mixed with 700 μl of serum-free DMEM and 30 μl of Fugene transfection reagent and incubated for 15 minutes at room temperature before the mixture was added to cells. After forty-eight hours, cells were detached from culture dishes using EDTA and washed once with PBS. Phage displaying CRPPR (SEQ ID NO: 1), CKRAVR (SEQ ID NO: 7), CRSTRANPC (SEQ ID NO: 11) or CPKTRRVPC (SEQ ID NO: 12) and nonrecombinant control phage (1×10^9 p.f.u) were incubated with transfected cells for two hours at 4° C. Unbound phage were removed by five washes with 1% BSA in PBS. Bound phage were rescued by addition of bacteria; binding efficiencies were determined by plaque assay as described above.
# (§2) Peptides for competition assays were synthesized at The Burnham Institute peptide facility using Fmoc chemistry in a solid-phase synthesizer prior to purification by HPLC and confirmation of their identity by mass spectrometry. Fluorescein-conjugated peptides were synthesized as described in Wender et al., Proc. Natl. Acad. Sci. USA 97:13003-13008 (2000). Competition assays were performed by addition of 100 μg peptide to the cells and phage, followed by incubation at 4° C. for two hours. After five washes with […], bound phage were rescued and quantitated by plaque assay.
# bc10 = biological target: T2, bc10 (Mus musculus, UniProt P62951); assay: as above; design: species or system murine; conditions: free synthetic peptide 100 μg/ml
# T2 construct: Full-length cDNAs were constructed for four of the putative heart homing receptors; expressed in transfected cells; host or cells: 293T cells, pMH6-derived plasmid
# T2 sequence (P62951 1-87): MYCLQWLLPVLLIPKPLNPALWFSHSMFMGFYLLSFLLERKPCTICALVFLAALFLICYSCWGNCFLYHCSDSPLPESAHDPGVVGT
# Description: as §1, §2
# endothelin A-receptor = biological target: T3, endothelin A-receptor (Homo sapiens, UniProt P25101); conditions: cited from earlier work
# T3 construct: host or cells: patients
# T3 sequence (P25101 21-427): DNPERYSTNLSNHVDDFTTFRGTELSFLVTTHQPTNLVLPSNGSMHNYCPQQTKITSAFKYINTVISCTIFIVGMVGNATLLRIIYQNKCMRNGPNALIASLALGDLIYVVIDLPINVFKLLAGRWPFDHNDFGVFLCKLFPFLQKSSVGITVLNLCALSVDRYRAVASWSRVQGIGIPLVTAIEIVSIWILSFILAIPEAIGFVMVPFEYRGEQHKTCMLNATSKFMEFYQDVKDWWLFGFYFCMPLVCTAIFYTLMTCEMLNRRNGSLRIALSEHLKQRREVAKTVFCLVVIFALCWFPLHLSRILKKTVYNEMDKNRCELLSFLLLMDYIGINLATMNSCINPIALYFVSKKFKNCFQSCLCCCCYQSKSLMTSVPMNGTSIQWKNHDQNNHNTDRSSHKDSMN
# MpcII-3-related protein = biological target: T4, MpcII-3-related protein (Mus musculus, UniProt Q9CZB0); assay: Phage binding to receptor-transfected 293T cells and peptide competition; design: species or system murine; conditions: free synthetic peptide 100 μg/ml
# T4 construct: Full-length cDNAs were constructed for four of the putative heart homing receptors; expressed in transfected cells; host or cells: 293T cells, pMH6-derived plasmid
# T4 sequence (Q9CZB0 30-169): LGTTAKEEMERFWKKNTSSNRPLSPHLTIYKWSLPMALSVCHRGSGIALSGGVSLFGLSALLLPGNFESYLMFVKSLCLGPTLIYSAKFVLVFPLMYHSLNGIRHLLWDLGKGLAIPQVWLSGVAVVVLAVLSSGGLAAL
# Description: as §1, §2
# HLP/CRIP2 = biological target: T5, HLP/CRIP2 (Mus musculus, UniProt Q9DCT8); assay: as above; design: species or system murine; conditions: free synthetic peptide 100 μg/ml
# T5 construct: Full-length cDNAs were constructed for four of the putative heart homing receptors; expressed in transfected cells; host or cells: 293T cells, pMH6-derived plasmid
# T5 sequence (Q9DCT8 1-208): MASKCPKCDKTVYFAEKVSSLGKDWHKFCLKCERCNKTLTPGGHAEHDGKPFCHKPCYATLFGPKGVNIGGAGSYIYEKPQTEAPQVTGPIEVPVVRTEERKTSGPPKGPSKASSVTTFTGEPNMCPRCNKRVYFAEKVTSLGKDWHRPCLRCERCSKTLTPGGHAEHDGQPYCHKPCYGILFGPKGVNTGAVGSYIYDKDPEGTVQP
# Description: as §1, §2
# [1] = system: heart-derived cell suspensions; assay: Competition of CRPPR-displaying phage binding to heart-derived cell suspensions; assay type: cell-based, murine; conditions: various concentrations of antibody or free peptide
# Description: CRPPR (SEQ ID NO: 1)-displaying phage were incubated with cell suspensions prepared from the heart; phage binding was measured in the presence and absence of various concentrations of the indicated antibodies or peptides. (A) A chicken anti-CRIP2 antibody blocked SEQ ID NO: 1-displaying phage binding to heart cells; normal IgY was used as the negative control. […] (C) In vivo homing of the CRPPR (SEQ ID NO: 1)-displaying phage to the heart was inhibited by co-injected anti-CRIP2 antibody. Shown are the mean and standard deviation from three separate experiments.
# The specificity of CRPPR (SEQ ID NO: 1)-phage binding to heart vasculature was assayed using competition assays. […] As negative controls, two other heart-homing peptides had no effect on the CRPPR (SEQ ID NO: 1)-phage binding. Furthermore, co-injected anti-HLP/CRIP2 antibody inhibited in vivo homing of CRPPR (SEQ ID NO: 1)-phage (FIG. 7C).
Molecule,selective homing to the heart (in words) (heart vasculature),phage localization in heart endothelia (anti-T7 antibody) (heart endothelia),phage detection in tissues other than heart (anti-T7 antibody) (heart endothelia),further results
CLIDLHVMC (displayed on phage) [peptide identified with receptor clone 27; negative control phage],no specific homing to the heart,absent from the heart,–,phage localization in heart endothelia (anti-T7 antibody) (heart endothelia; listed as SEQ ID NO: 10): absent from the heart and other tissues
CPSELLLP (displayed on phage),did not,–,–,–
CPKRPR (displayed on phage),exhibited selective homing to the heart,–,–,–
CKRAVR [on phage and as free peptide],–,present in heart endothelia,absent from other tissues,inhibition of CKRAVR-phage binding to Sigirr/TIR8-transfected cells by free peptide (Sigirr/TIR8): inhibited
CARPAR (displayed on phage),exhibited selective homing to the heart,present in heart endothelia,absent from other tissues,–
CPKTRRVPC [on phage and as free peptide],–,present in heart endothelia,absent from other tissues,inhibition of CPKTRRVPC-phage binding to bc10-transfected cells by free peptide (bc10): inhibited
Cc1cc2c(cc1CC(=O)c1sccc1S(=O)(=O)Nc1onc(C)c1Cl)OCO2 [TBC 11251],–,–,–,clinical effect in patients with moderate to severe congestive heart failure (endothelin A-receptor): significant improvement
CGNQVDSRC (displayed on T7 phage),no significant selective homing,–,–,–
CRSTRANPC [on phage and as free peptide],–,present in heart endothelia,absent from other tissues,inhibition of CRSTRANPC-phage binding to MpcII-3-related protein-transfected cells by free peptide (MpcII-3-related protein): inhibited
"CRPPR (not fully specified) [tested on T7 phage, as free peptide and fluorescein-conjugated]",–,present in heart endothelia,absent from other tissues,"phage homing to the lungs (heart vasculature; peptide displayed on phage, lung tissue): little; inhibition of CRPPR-phage binding to HLP/CRIP2-transfected cells by free peptide (HLP/CRIP2): inhibited; inhibition of CRPPR-displaying phage binding to heart-derived cell suspensions [1]: blocked; also recorded: Dose dependent inhibition"
